Experimental data from patent publication US20050080139A1, “Naaladase inhibitors for treating huntington's disease” (priority 2001, published 2005).

Assays:
[1] = tested on: Transgenic HD mice of the N171-82Q strain; assay: Rotarod behavioral testing in transgenic mouse model of Huntington's disease; assay type: in vivo; details: transgenic HD mice N171-82Q, 30 mg/kg from 10 weeks of age, vs vehicle
Description: Transgenic HD mice of the […]-[…] strain and non-transgenic littermates were treated with NAALADase inhibitor Compound B (30 mg/kg) or a vehicle from 10 weeks of age. The mice were placed on a rotating rod (“rotarod”). The length of time at which the mouse fell off the rotarod was recorded as a measure of motor coordination. […] The treatment with Compound B had no effect on the rotarod performance of normal non-HD mice.

[2] = tested on: transgenic HD mice (N171-82Q); assay: Survival of transgenic HD mice; assay type: in vivo
Description: The effects of Compound B and vehicle on the survival of transgenic HD mice (N171-82Q) were evaluated. Thirteen mice (six male and seven female) were assigned to the Compound B treatment group, and fourteen mice (six male and eight female) were assigned to the vehicle treatment group. Treatment was continued until all the mice died.

[3] = tested on: Transgenic HD mice of the N171-82Q strain; assay: Total distance traveled (overall locomotion) in HD mice; assay type: in vivo; details: 30 mg/kg from 10 weeks of age, vs vehicle
Description: Transgenic HD mice of the […]-[…] strain and non-transgenic littermates were treated with NAALADase inhibitor Compound B (30 mg/kg) or a vehicle from 10 weeks of age. The mice were placed on a rotating rod (“rotarod”). The length of time at which the mouse fell off the rotarod was recorded as a measure of motor coordination. […] The treatment with Compound B had no effect on the rotarod performance of normal non-HD mice. The total distance traveled by the mice was also recorded as a measure of overall locomotion.

NAALADase = NAALADase (Homo sapiens, UniProt Q04609); details: NAAG as substrate of NAALADase; cited from earlier work
Sequence of NAALADase (Q04609 whole entry): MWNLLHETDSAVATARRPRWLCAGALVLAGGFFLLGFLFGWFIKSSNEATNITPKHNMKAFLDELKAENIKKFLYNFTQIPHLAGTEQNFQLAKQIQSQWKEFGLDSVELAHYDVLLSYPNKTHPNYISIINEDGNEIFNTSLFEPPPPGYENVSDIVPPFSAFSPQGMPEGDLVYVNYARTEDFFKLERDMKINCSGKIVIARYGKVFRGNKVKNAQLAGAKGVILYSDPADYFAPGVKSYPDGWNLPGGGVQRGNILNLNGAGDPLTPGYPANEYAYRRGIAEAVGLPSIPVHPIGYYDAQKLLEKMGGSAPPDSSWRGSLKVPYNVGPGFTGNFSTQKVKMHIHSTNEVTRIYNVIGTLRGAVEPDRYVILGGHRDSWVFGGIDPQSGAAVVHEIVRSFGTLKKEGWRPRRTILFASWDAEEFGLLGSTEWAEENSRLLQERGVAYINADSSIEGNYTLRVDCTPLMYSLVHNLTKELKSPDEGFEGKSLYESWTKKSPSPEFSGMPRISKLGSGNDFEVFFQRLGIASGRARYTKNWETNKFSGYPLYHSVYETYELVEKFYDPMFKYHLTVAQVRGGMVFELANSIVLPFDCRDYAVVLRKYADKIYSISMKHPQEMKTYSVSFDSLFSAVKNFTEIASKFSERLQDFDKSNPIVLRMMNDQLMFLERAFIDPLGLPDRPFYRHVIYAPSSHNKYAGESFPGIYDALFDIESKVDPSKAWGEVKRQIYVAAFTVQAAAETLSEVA

Row | Compound | rotarod performance (length of time on the rotarod, motor coordination) [1] | survival time vs vehicle ([2]; female transgenic HD mice, p-value 0.03) | survival time vs vehicle ([2]; transgenic HD mice N171-82Q, both sexes, difference in median survival time) | median survival time ([2]; transgenic HD mice N171-82Q, both sexes, vehicle 158.5 days, p-value=0.07) | total distance traveled (overall locomotion) [3] | Km (NAALADase)
1 | O=C(O)CCC(CCCS)C(=O)O (stereo not drawn) [Compound B, 2-(3-sulfanylpropyl)-pentanedioic acid] | stayed longer on the rotarod | significantly prolonged survival time | not statistically significant | 184 days | no apparent effect on overall locomotion | 
2 | N-acetyl-aspartyl-glutamate [NAAG] |  |  |  |  |  | 0.54 µM
